Consider 2 molecules from US4591595A, “2-guanidino-4-(2-methyl-4-imidazolyl)thiazoles in the treatment of rheumatoid arthritis” (Pfizer Inc., priority 1985, dated 1986).

Read-outs that look alike come from different tables or passages of the source.

In the test the test system is Adjuvant-Induced Arthritis. The test can be described thus: Adjuvant-induced arthritis in the rat (Mycobacterium butyricum, subplantar; inhibition of hindpaw edema, primary and secondary lesions). Particulars: for % Inhibition of Lesions, Secondary (mean ± SE): contralateral non-injected paw, day 16; for % Inhibition of Lesions, Primary (mean ± SE): injected paw, day 4; for ED50: Rattus norvegicus. The class given is in vivo, rat (adult male Wistar-Lewis). As for the experimental part:
Adjuvant arthritis was induced in adult male Wistar-Lewis rats weighing 250-270 grams each (Charles River Breeding Laboratories, Kingston, N.Y.) by a single subplantar injection of 1 mg of Mycobacterium butyricum (Difco Laboratories, Lot #0640-33) suspended in 0.1 ml mineral oil as described by Walz et al. (Proc. Soc. Exptl. Biol. Med., 136: 907-910, 1971). Seven rats were used in each group. Orally administered drugs were dissolved in water and dilute sodium hydroxide was added as necessary to ensure solution; control groups received only water. After neutralization of the solutions to pH 7.0, a volume of 10 ml/kg body weight was given by intubation with a blunt end, 18-gauge needle. Doses of each drug were given daily starting 1 day before the injection of adjuvant and continuing until 16 days after the induction of the arthritic lesion.
The initial hindpaw volumes (Vi) were measured on the day of adjuvant injection and the resultant swelling was determined on the injected paw (Vf - Vi) on the 4th day following the adjuvant injection. This was considered to be the primary response or lesion. The swelling (Vf - Vi) measured 16 days after adjuvant injection on the contralateral, non-injected hindpaw constituted the secondary response or lesion. The rats were weighed at the start of the experiments as well as 4 and 16 days after the induction of the disease. Percent inhibition of edema was calculated according to the following formula: [formula]

Take `Cc1nc(-c2csc(NC(=N)N)n2)c[nH]1.Cl.Cl` [Compound A, 2-Guanidino-4-(2-methyl-4-imidazolyl)thiazole Dihydrochloride]: the “effect on the course of adjuvant arthritis in rats (in words)” value (compound alone) is on record as “beneficial effect”. Also, the “% Inhibition of Lesions, Secondary (mean ± SE)” value by setting is: (oral 1.0 mg/kg daily) 3 (3) %; (oral 3.3 mg/kg daily) 28 (4) %; (oral 10.0 mg/kg daily) 27 (3) %. The “% Inhibition of Lesions, Primary (mean ± SE)” value (oral 1.0 mg/kg daily) is given as 0 (6) %; the “% Inhibition of Lesions, Primary (mean ± SE)” value (oral 3.3 mg/kg daily) is on record as 0 (3) %; the “% Inhibition of Lesions, Primary (mean ± SE)” value (oral 10.0 mg/kg daily) is 2 (2) %. Besides, the “ED50 (in words)” value (oral, linear regression of Table I data, secondary lesions) is listed as “no reliable ED50 could be extrapolated”. Besides, the “activity against primary lesions (in words)” value (oral, primary lesions) is reported as “no significant activity”. For the same molecule, the “activity against secondary lesions (in words)” value (oral, secondary lesions) is “significant activity”.
As for `CN1C(C(=O)Nc2ccccn2)=C(O)c2ccccc2S1(=O)=O` [Piroxicam, reference compound], the median effective dose (ED50) is 2.6 mg/kg (oral, linear regression of Table I data, primary lesions, read-out: ED50 against primary lesions) and 0.45 mg/kg (oral, linear regression of Table I data, secondary lesions, read-out: ED50 against secondary lesions). Besides, the “% Inhibition of Lesions, Secondary (mean ± SE)” value runs as follows: (oral 0.10 mg/kg daily) 26 (2) %; (oral 0.33 mg/kg daily) 43 (4) %; (oral 1.0 mg/kg daily) 64 (3) %. Moreover, the “% Inhibition of Lesions, Primary (mean ± SE)” value runs as follows: (oral 0.10 mg/kg daily) 29 (4) %; (oral 0.33 mg/kg daily) 33 (8) %; (oral 1.0 mg/kg daily) 45 (7) %.
